Results taken from ChEMBL document CHEMBL3797180, “Squaramides with cytotoxic activity against human gastric carcinoma cells HGC-27: synthesis and mechanism of action” (Medchemcomm, 2016).
pIC50: −log10 of the molar value. The source made the active and inactive calls. No cut-off for these calls is given here.

Assays:
HeLa [1] = assay: Cytotoxicity against human HeLa cells assessed as inhibition of cell viability at 100 uM after 24 hrs by MTT assay; type: functional, cell-based
HGC-27 [2] = assay: Cytotoxicity against HGC27 cells assessed as inhibition of cell viability at 100 uM after 24 hrs by MTT assay; type: functional, cell-based; conditions: Homo sapiens
HeLa [3] = assay: Cytotoxicity against human HeLa cells assessed as inhibition of cell viability at 20 uM after 24 hrs by MTT assay; type: functional, cell-based
HGC-27 [4] = assay: Cytotoxicity against HGC27 cells assessed as inhibition of cell viability at 20 uM after 24 hrs by MTT assay; type: functional, cell-based; conditions: Homo sapiens
[5] = Cytotoxicity against HGC27 cells after 24 hrs by MTT assay; type: functional, cell-based; conditions: Homo sapiens, HGC-27, 24 h
HeLa [6] = assay: Cytotoxicity against human HeLa cells after 24 hrs by MTT assay; type: functional, cell-based
HGC-27 [7] = assay: Induction of apoptosis in HGC27 cells assessed as apoptotic cells after 24 hrs by Annexin-V-FITC/propidium iodide staining-based flow cytometry; type: functional, cell-based; conditions: Homo sapiens
HGC-27 [8] = assay: Induction of apoptosis in HGC27 cells assessed as early apoptotic cells at 2 uM after 24 hrs by Annexin-V-FITC/propidium iodide staining-based flow cytometry (reference value: 6.7%); type: functional, Homo sapiens
HGC-27 [9] = assay: Induction of apoptosis in HGC27 cells assessed as late apoptotic cells at 2 uM after 24 hrs by Annexin-V-FITC/propidium iodide staining-based flow cytometry (reference value: 6.7%); type: functional, Homo sapiens
HGC-27 [10] = assay: Induction of apoptosis in HGC27 cells assessed as necrotic cells at 2 uM after 24 hrs by Annexin-V-FITC/propidium iodide staining-based flow cytometry; type: functional, Homo sapiens

Compound	inhibition (HeLa [1])	inhibition (HGC-27 [2])	inhibition (HeLa [3])	inhibition (HGC-27 [4])	also measured
COc1ccc(Nc2c(OC)c(=O)c2=O)c(OC)c1	inactive	inactive	–	–	–
COc1c(Nc2cc(F)c(F)c(F)c2)c(=O)c1=O	inactive	inactive	–	–	–
O=c1c(Nc2ccc(C(F)(F)F)cc2)c(N[C@@H]2CCCC[C@@H]2N2CCCCC2)c1=O	–	–	inactive	inactive	–
Cc1ccc(S(=O)(=O)N[C@@H]2CCCC[C@H]2Nc2c(NCc3cc(C(F)(F)F)cc(C(F)(F)F)c3)c(=O)c2=O)cc1	Active	Active	inactive	inactive	–
O=c1c(NCc2cc(C(F)(F)F)cc(C(F)(F)F)c2)c(N[C@@H]2CCCC[C@H]2N2CCCCC2)c1=O	Active	Active	–	–	–
C[C@@H](Nc1c(Nc2cc(C(F)(F)F)cc(C(F)(F)F)c2)c(=O)c1=O)c1ccccc1	Active	Active	inactive	inactive	–
O=c1c(Nc2cc(C(F)(F)F)cc(C(F)(F)F)c2)c(N[C@@H]2CCCC[C@H]2N2CCCCC2)c1=O	Active	Active	Active	Active	–
C=CC1CN2CCC1CC2[C@@H](Nc1c(Nc2cc(C(F)(F)F)cc(C(F)(F)F)c2)c(=O)c1=O)c1ccnc2ccc(OC)cc12 (stereo partly drawn)	Active	Active	Active	Active	pIC50 [5]: 5.09; pIC50 (HeLa [6]): 4.82
C=CC1CN2CCC1CC2[C@H](Nc1c(NCc2cc(C(F)(F)F)cc(C(F)(F)F)c2)c(=O)c1=O)c1ccnc2ccccc12 (stereo partly drawn)	Active	Active	Active	Active	pIC50 [5]: 5.52; pIC50 (HeLa [6]): 4.92
O=c1c(Nc2cc(C(F)(F)F)cc(C(F)(F)F)c2)c(N[C@@H](CO)Cc2ccccc2)c1=O	Active	Active	inactive	inactive	–
O=c1c(Nc2ccc3ccccc3c2-c2c(O)ccc3ccccc23)c(N[C@@H]2CCCC[C@H]2N2CCCCC2)c1=O	–	–	inactive	Active	pIC50 [5]: 4.95; pIC50 (HeLa [6]): < 4.70
O=c1c(Nc2cc(F)cc(F)c2)c(N[C@@H](c2ccccc2)C(O)(c2ccccc2)c2ccccc2)c1=O	–	–	inactive	Active	pIC50 [5]: 5.47; pIC50 (HeLa [6]): < 4.70
COc1c(Nc2ccc(C(C)(C)C)cc2)c(=O)c1=O	inactive	inactive	–	–	–
C=CC1CN2CCC1CC2[C@@H](Nc1c(NCc2cc(C(F)(F)F)cc(C(F)(F)F)c2)c(=O)c1=O)c1ccnc2ccc(OC)cc12 (stereo partly drawn)	Active	Active	–	–	–
COc1c(N[C@H]2c3ccccc3C[C@H]2O)c(=O)c1=O	inactive	inactive	–	–	–
C=CC1CN2CCC1CC2[C@@H](Nc1c(Nc2ccc(C(F)(F)F)cc2)c(=O)c1=O)c1ccnc2ccccc12 (stereo partly drawn)	Active	Active	Active	Active	pIC50 [5]: 5.34; pIC50 (HeLa [6]): 4.97
CCc1cc(C#N)ccc1Nc1c(OC)c(=O)c1=O	inactive	inactive	–	–	–
COc1c(Nc2ccc([N+](=O)[O-])cc2)c(=O)c1=O	inactive	inactive	–	–	–

Compound	inhibition (HeLa [1])	inhibition (HGC-27 [2])	inhibition (HeLa [3])	inhibition (HGC-27 [4])	also measured
O=c1c(Nc2cc(C(F)(F)F)cc(C(F)(F)F)c2)c(N[C@H]2c3ccccc3C[C@H]2O)c1=O	Active	Active	–	–	–
COc1c(N(C)c2ccccc2)c(=O)c1=O	inactive	inactive	–	–	–
CN(C)[C@@H]1CCCC[C@H]1Nc1c(Nc2cc(C(F)(F)F)cc(C(F)(F)F)c2)c(=O)c1=O	Active	Active	inactive	inactive	–
COc1c(Nc2cc(OC(C)C)c(Cl)cc2Cl)c(=O)c1=O	inactive	inactive	–	–	–
Cc1ccc(S(=O)(=O)N[C@@H]2CCCC[C@H]2Nc2c(Nc3cc(C(F)(F)F)cc(C(F)(F)F)c3)c(=O)c2=O)cc1	Active	Active	inactive	inactive	–
COc1c(Nc2ccc(C(F)(F)F)cc2)c(=O)c1=O	inactive	inactive	–	–	–
COc1c(Nc2cc(F)cc(F)c2)c(=O)c1=O	inactive	inactive	–	–	–
C[C@H](c1c(Nc2cc(F)cc(F)c2)c(=O)c1=O)c1cccc2ccccc12	–	–	Active	Active	–
O=c1c(Nc2cc(F)c(F)c(F)c2)c(N[C@@H]2CCCC[C@H]2N2CCCCC2)c1=O	–	–	inactive	inactive	–
COc1c(N[C@@H]2CCCC[C@H]2NS(=O)(=O)c2ccc(C)cc2)c(=O)c1=O	inactive	inactive	–	–	–
COc1ccc(Nc2c(OC)c(=O)c2=O)cc1	inactive	inactive	–	–	–
O=c1c(Nc2ccc(C(F)(F)F)cc2)c(N[C@@H]2CCCC[C@H]2N2CCCCC2)c1=O	–	–	inactive	inactive	–
COc1cccc2c1C(=O)c1c(O)c3c(c(O)c1C2=O)C[C@@](O)(C(=O)CO)C[C@@H]3O[C@H]1C[C@H](N)[C@H](O)[C@H](C)O1 [DOXORUBICIN]	–	–	–	–	pIC50 [5]: 4.43; Activity (HGC-27 [7]): Dose-dependent effect; Activity (HGC-27 [8]): 3.2%; Activity (HGC-27 [9]): 16.7%; Activity (HGC-27 [10]): 32.4%
C=CC1CN2CCC1CC2[C@@H](Nc1c(Nc2ccc(C(F)(F)F)cc2)c(=O)c1=O)c1ccnc2ccc(OC)cc12 (stereo partly drawn)	Active	Active	inactive	Active	pIC50 [5]: 4.89; pIC50 (HeLa [6]): < 4.70
COc1c(N[C@@H](C)c2cccc3ccccc23)c(=O)c1=O	inactive	inactive	–	–	–
COc1c(Nc2ccccc2)c(=O)c1=O	inactive	inactive	–	–	–
C=CC1CN2CCC1CC2[C@@H](Nc1c(Nc2cc(C(F)(F)F)cc(C(F)(F)F)c2)c(=O)c1=O)c1ccnc2ccccc12 (stereo partly drawn)	Active	Active	Active	Active	pIC50 [5]: 5.09; pIC50 (HeLa [6]): 4.95
O=c1c(Nc2ccc3ccccc3c2-c2c(O)ccc3ccccc23)c(N[C@@H]2CCCC[C@H]2N2CCCC2)c1=O	–	–	inactive	Active	pIC50 [5]: 4.97; pIC50 (HeLa [6]): < 4.70
